Read-outs that look alike come from different tables or passages of the source. Each block holds one compound with its values, some of them ahead of it.
Tests used:
[1] = molecular target: T1, SirT2 (Homo sapiens, UniProt Q8IXJ6); test: SirT2 activity (Tables 1 and 2); assay type: biochemical
T1 sequence (Q8IXJ6 1-389): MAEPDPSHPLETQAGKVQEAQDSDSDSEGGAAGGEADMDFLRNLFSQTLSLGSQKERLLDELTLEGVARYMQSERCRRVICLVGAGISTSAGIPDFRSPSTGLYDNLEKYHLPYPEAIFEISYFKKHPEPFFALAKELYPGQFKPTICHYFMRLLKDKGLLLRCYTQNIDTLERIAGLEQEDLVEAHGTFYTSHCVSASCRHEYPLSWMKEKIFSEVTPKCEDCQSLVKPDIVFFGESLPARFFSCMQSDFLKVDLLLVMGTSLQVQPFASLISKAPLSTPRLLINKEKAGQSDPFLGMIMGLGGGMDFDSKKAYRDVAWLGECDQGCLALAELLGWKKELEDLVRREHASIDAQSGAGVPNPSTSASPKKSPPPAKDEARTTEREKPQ

[2] = molecular target: T2, human SirT1 (Homo sapiens, UniProt Q96EB6); test: SirT1 Fluor de Lys enzymatic deacetylase assay; assay type: biochemical
T2 construct: purchased Biomol SE-239
T2 sequence (Q96EB6 1-747): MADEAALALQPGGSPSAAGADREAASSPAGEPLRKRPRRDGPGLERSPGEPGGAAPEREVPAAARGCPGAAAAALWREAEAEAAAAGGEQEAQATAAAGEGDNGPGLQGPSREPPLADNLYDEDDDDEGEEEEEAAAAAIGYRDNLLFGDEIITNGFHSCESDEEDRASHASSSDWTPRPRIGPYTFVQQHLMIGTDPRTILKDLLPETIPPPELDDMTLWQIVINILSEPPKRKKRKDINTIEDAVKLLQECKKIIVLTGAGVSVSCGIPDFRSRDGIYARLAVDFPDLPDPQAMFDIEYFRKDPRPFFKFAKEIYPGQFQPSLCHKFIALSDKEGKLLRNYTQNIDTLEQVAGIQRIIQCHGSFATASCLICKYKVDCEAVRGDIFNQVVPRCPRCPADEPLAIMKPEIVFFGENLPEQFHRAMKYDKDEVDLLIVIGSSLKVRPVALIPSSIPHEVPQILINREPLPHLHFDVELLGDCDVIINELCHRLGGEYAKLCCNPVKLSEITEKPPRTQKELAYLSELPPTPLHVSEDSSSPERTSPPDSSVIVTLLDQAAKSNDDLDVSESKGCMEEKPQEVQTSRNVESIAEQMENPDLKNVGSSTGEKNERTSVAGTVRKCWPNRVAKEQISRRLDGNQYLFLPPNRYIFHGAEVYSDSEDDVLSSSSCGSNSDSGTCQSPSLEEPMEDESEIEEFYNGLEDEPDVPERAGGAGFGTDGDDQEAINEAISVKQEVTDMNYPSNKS
Source text: An exemplary assay method includes a 1536 well format of the SirT1 enzymatic assay that is based on the commercial “Fluor-de-Lys” assay principle by Biomol, which is fluorogenic (www.biomol.com/store/Product_Data_PDFs/ak500.pdf). In this assay, deacetylation of the e-amino function of a lysyl residue is coupled to a fluorogenic “development step that is dependent on the unblocked e-amino functionality and generates fluorescent aminomethylcoumarin. Fluorescence can be read on a commercial macroscopic reader.
Step Description • 1 Prepare amount of 2× Substrates necessary for the number of wells to be assayed.

[3] = molecular target: T3, GFP-hSIRT2 isoform 1 (Homo sapiens, UniProt Q8IXJ6); test: Acetylated tubulin staining in HeLa cells transfected with GFP-hSIRT2 isoform 1; assay type: cell-based; conditions: 50 μM compound with 1 μM TSA, added 36 hours post transfection, stained next morning; versus DMSO
T3 construct: expressed in transfected cells; host or cells: HeLa
T3 sequence (Q8IXJ6 1-389): T1 sequence (Q8IXJ6 1-389)
Experimental: HeLa cells were transfected with GFP-hSIRT2 isoform 1. At 36 hours post transfection 1 μM of TSA and either DMSO or 50 μM of Compound 8 was added. The next morning cells were fixed, permeabilized, and stained for acetylated tubulin.

[4] = Table 2, Activity of representative compounds (conc. in μM)
[5] = Table 2, Activity of representative compounds (conc. in μM), read-out: SirT1
[6] = Table 3, p53-382 Fluor de Lys substrate, read-out: SirT1 p53-382-FdL IC50
[7] = Table 1, Activity of Triazoles (conc. in μM)
[8] = Table 1, Activity of Triazoles (conc. in μM), read-out: SirT1

IC50 [1, 4]: > 10 µM
IC50 [2, 5]: 1 to 10 µM
Compound: NC(=O)Cn1c(=O)oc2cc(Br)ccc21 [Compound 6, 2-(6-Bromo-2-oxo-benzooxazol-3-yl)-acetamide]

IC50 [2, 6]: > 10 µM
Compound: NC(=O)c1c(NC(=O)C2CC2)sc2c1CCCCC2 [Compound 34, 2-(Cyclopropanecarbonyl-amino)-5,6,7,8-tetrahydro-4H-cyclohepta[b]thiophene-3-carboxylic acid amide]

IC50 [2, 6]: > 10 µM
Compound: CC(C)CC(=O)Nc1sc2c(c1C(N)=O)CCCCCC2 [Compound 33, 2-(3-Methyl-butyrylamino)-4,5,6,7,8,9-hexahydro-cycloocta[b]thiophene-3-carboxylic acid amide]

IC50 [1, 4]: > 10 µM
IC50 [2, 5]: 1 to 10 µM
Compound: O=C(O)CSc1nc2sc3c(c2c(=O)n1C1CCCCC1)CCC3 [Compound 5, (5-Cyclohexyl-4-oxo-2,3,4,5-tetrahydro-1H-8-thia-5,7-diaza-cyclopenta[a]inden-6-ylsulfanyl)-acetic acid]

IC50 [2, 6]: > 10 µM
Compound: Cc1sc(NC(=O)c2ccncc2)c(C(N)=O)c1C [Compound 29, N-(3-Carbamoyl-4,5-dimethyl-thiophen-2-yl)-isonicotinamide]

IC50 [1, 7]: 1 to 10 µM
IC50 [2, 8]: > 10 µM
Compound: Cc1ccc(-n2c(SCC(N)=O)nnc2-c2ccccc2Br)cc1 [Compound 4, 2-[5-(2-Bromo-phenyl)-4-p-tolyl-4H-[1,2,4]triazol-3-ylsulfanyl]-acetamide]

IC50 [2, 6]: < 1 µM
Compound: CC1CCc2c(sc(NC(=O)C3CCCC3)c2C(N)=O)C1 (stereo not shown) [Compound 32, 2-(Cyclopentanecarbonyl-amino)-6-methyl-4,5,6,7-tetrahydro-benzo[b]thiophene-3-carboxylic acid amide]

acetylation of tubulin in cells expressing SIRT2 [3]: more highly acetylated
Compound: NC(=O)COC(=O)c1sc2ccccc2c1Cl [Compound 8, 3-Chloro-benzo[b]thiophene-2-carboxylic acid carbamoylmethyl ester]

IC50 [2, 6]: 1 to 10 µM
Compound: CCC(=O)Nc1sc2c(c1C(N)=O)CCC(C)C2 (stereo not shown) [Compound 35, 6-Methyl-2-propionylamino-4,5,6,7-tetrahydro-benzo[b]thiophene-3-carboxylic acid amide]

IC50 [2, 6]: > 10 µM
Compound: Cc1sc(NC(=O)C2CCCO2)c(C(N)=O)c1C (stereo not shown) [Compound 15, Tetrahydro-furan-2-carboxylic acid (3-carbamoyl-4,5-dimethyl-thiophen-2-yl)-amide]

IC50 [2, 6]: > 10 µM
Compound: Cc1sc(NC(=O)Cn2nc([N+](=O)[O-])cc2C)c(C(N)=O)c1C [Compound 9, 4,5-Dimethyl-2-[2-(5-methyl-3-nitro-pyrazol-1-yl)-acetylamino]-thiophene-3-carboxylic acid amide]

IC50 [2, 6]: > 10 µM
Compound: CC1CCc2c(sc(N)c2C(N)=O)C1 (stereo not shown) [Compound 36, 2-Amino-6-methyl-4,5,6,7-tetrahydro-benzo[b]thiophene-3-carboxylic acid amide]

IC50 [1, 7]: > 10 µM
IC50 [2, 8]: 1 to 10 µM
Compound: NC(=O)CSc1nnc(Cc2c[nH]c3ccccc23)n1Cc1ccccc1 [Compound 1, 2-[4-Benzyl-5-(1H-indol-3-ylmethyl)-4H-[1,2,4]triazol-3-ylsulfanyl]-acetamide]

IC50 [1, 7]: > 10 µM
IC50 [2, 8]: 1 to 10 µM
Compound: Cc1ccc(-n2c(Cc3ccccc3)nnc2SCC(N)=O)cc1 [Compound 3, 2-(5-Benzyl-4-p-tolyl-4H-[1,2,4]triazol-3-ylsulfanyl)-acetamide]

IC50 [1, 4]: > 10 µM
IC50 [2, 5]: > 10 µM
Compound: Nn1c(CCC(=O)O)nc2sc3c(c2c1=O)CCCC3 [Compound 7, 3-(3-Amino-4-oxo-3,4,5,6,7,8-hexahydro-benzo[4,5]thieno[2,3-d]pyrimidin-2-yl)-propionic acid]

IC50 [2, 6]: > 10 µM
Compound: Cc1sc(NC(=O)c2cnccn2)c(C(N)=O)c1C [Compound 30, Pyrazine-2-carboxylic acid (3-carbamoyl-4,5-dimethyl-thiophen-2-yl)-amide]

IC50 [1, 7]: > 10 µM
IC50 [2, 8]: 1 to 10 µM
Compound: COc1ccc(-n2c(COc3cccc4ccccc34)nnc2SCC(N)=O)cc1 [Compound 2, 2-[4-(4-Methoxy-phenyl)-5-(naphthalen-1-yloxymethyl)-4H-[1,2,4]triazol-3-ylsulfanyl]-acetamide]

IC50 [2, 6]: > 10 µM
Compound: Cc1sc(NC(=O)c2ccc(Br)o2)c(C(N)=O)c1C [Compound 11, 5-Bromo-furan-2-carboxylic acid (3-carbamoyl-4,5-dimethyl-thiophen-2-yl)-amide]

IC50 [2, 6]: > 10 µM
Compound: CCC1CCc2c(sc(N)c2C(N)=O)C1 (stereo not shown) [Compound 38, 2-Amino-6-ethyl-4,5,6,7-tetrahydro-benzo[b]thiophene-3-carboxylic acid amide]

IC50 [2, 6]: > 10 µM
Compound: Cc1sc(NC(=O)C2CC2)c(C(N)=O)c1C [Compound 26, 2-(Cyclopropanecarbonyl-amino)-4,5-dimethyl-thiophene-3-carboxylic acid amide]

IC50 [2, 6]: > 10 µM
Compound: CSc1c(CC(=O)NCCO)n(C)c2ccc(C)cc12 [Compound 48, 2-(1,5-Dimethyl-3-methylsulfanyl-1H-indol-2-yl)-N-(2-hydroxy-ethyl)-acetamide]

— US20050250794A1, “Methods of treating a disorder” (priority 2003, published 2005)
